Structures are written as SMILES.

For `Cc1ccc(Sc2cncc3sc(C=NOc4ccccc4)cc23)cc1` [Example 29, 4-[(4-methylphenyl)thio]thieno[2,3-c]pyridine-2-carboxaldehyde, O-phenyloxime], the melting point (usually the temperature of the solid-liquid transition) is 94 to 97 °C.

In the case of `Cc1ccc(Sc2cncc3sc(C=NO)cc23)cc1` [Example 30, 4-[(4-methylphenyl)thio]thieno[2,3-c]pyridine-2-carboxaldehyde, oxime], the melting point fell in the range of 209 to 210 °C.

Regarding `Cc1ccc(Sc2cncc3sc(C=NOCC(N)=O)cc23)cc1` [Example 31, 2-[[[4-[(4-methylphenyl)thio]thieno[2,3-c]pyridine-2-ylmethylene]amino]oxy]acetamide], the melting point fell in the range of 152 to 156 °C.

In turn, `CC(=O)c1cc2c(Sc3ccc(C)cc3)cncc2s1` [Example 33, 1-[4-[(4-methylphenyl)thio]thieno[2,3-c]pyridin-2-yl]ethanone] had a melting point of 134 to 138 °C.

Consider `Cc1ccc(Sc2cncc3sc(C(=O)c4ccccc4)cc23)cc1` [Example 34, 2-benzoyl-4-[(4-methylphenyl)thio]thieno[2,3-c]pyridine], for which the melting point fell in the range of 103 to 107 °C.

Consider `CC(=NO)c1cc2c(Sc3ccc(C)cc3)cncc2s1` [Example 36, 1-[4-[(4-methylphenyl)thio]thieno[2,3-c]pyridin-2-yl]ethanone, oxime], for which the melting point was 209 to 213 °C.

`Cc1ccc(Sc2cncc3sc(C(=O)NCC(O)CO)cc23)cc1` (stereo not drawn) [Example 37, N-(2,3-dihydroxypropyl)-4-[(4-methylphenyl)thio]thieno[2,3-c]pyridine-2-carboxamide] displayed a melting point of 120 to 122 °C.

`Cc1ccc(Sc2cncc3sc(C(N)=S)cc23)cc1` [Example 41, 4-[(4-methylphenyl)thio]thieno[2,3-c]pyridine-2-carbothioamide] came in with a melting point of 181 to 183 °C.

On to `Cc1ccc(Sc2cncc3sccc23)cc1` [Example 42, 4-[(4-methylphenyl)thio]thieno[2,3-c]pyridine], for which the melting point fell in the range of 94 to 95 °C.

In turn, `Cc1ccccc1Sc1cncc2sc(C(N)=O)cc12` [Example 48, 4-[(2-methylphenyl)thio]thieno[2,3-c]pyridine-2-carboxamide] displayed a melting point of 170 to 172 °C.

For `Cc1cccc(Sc2cncc3sc(C(N)=O)cc23)c1` [Example 49, 4-[(3-methylphenyl)thio]thieno[2,3-c]pyridine-2-carboxamide], the melting point was in the range of 171 to 173 °C.

`Cc1ccc(Sc2cncc3sc(C(N)=O)cc23)cc1C` [Example 50, 4-[(3,4-dimethylphenyl)thio]thieno[2,3-c]pyridine-2-carboxamide] showed a melting point of 192 to 194 °C.

Consider `Cc1cc(C)cc(Sc2cncc3sc(C(N)=O)cc23)c1` [Example 51, 4-[(3,5-dimethylphenyl)thio]thieno[2,3-c]pyridine-2-carboxamide], for which the melting point fell in the range of 177 to 179 °C.

The compound `Cc1ccc(Sc2cncc3sc(C(N)=O)cc23)c(C)c1` [Example 52, 4-[(2,4-dimethylphenyl)thio]thieno[2,3-c]pyridine-2-carboxamide] registered a melting point of 193 to 195 °C.

For the compound `COc1ccc(Sc2cncc3sc(C(N)=O)cc23)cc1` [Example 56, 4-[(4-methoxyphenyl)thio]thieno[2,3-c]pyridine-2-carboxamide], the melting point is 219 to 221 °C.

With `NC(=O)c1cc2c(SC3CCCCC3)cncc2s1` [Example 57, 4-(cyclohexylthio)thieno[2,3-c]pyridine-2-carboxamide], the melting point was in the range of 205 to 207 °C.

The compound `NC(=O)/C=C/c1cc2c(Oc3ccc(Cl)cc3)cncc2s1` [Example 92, (E)-3-[4-(4-chlorophenoxy)thieno[2,3-c]pyridin-2-yl]-2-propenamide] came in with a melting point of 176 to 178 °C.

Turning to `NC(=O)c1sc2cncc(Oc3ccc(Cl)cc3)c2c1N` [Example 131, 3-amino-4-(4-chlorophenoxy)thieno[2,3-c]pyridine-2-carboxamide], the melting point lay within 202 to 204 °C.

Consider `Cc1ccc(Sc2ccnc3sc(C(N)=O)cc23)cc1` [Example 132D, 4-[(4-methylphenyl)thio]thieno[2,3-b]pyridine-2-carboxamide], for which the melting point lay in the range of 280 to 282 °C.

Regarding `O=C(Nc1ccc(Cl)cc1)c1cnc2sccc2c1Cl` [Example 133, 4-chloro-N-(4-chlorophenyl)thieno[2,3-b]pyridine-5-carboxamide], the melting point fell in the range of 199 to 202 °C.

Consider `CCOC(=O)c1cnc2sccc2c1Sc1nnc(C)s1` [Example 134, ethyl 4-[(5-methyl-1,3,4-thiadiazol-2-yl)thio]thieno[2,3-b]pyridine-5-carboxylate], for which the melting point fell in the range of 93 to 94 °C.

In turn, `O=C(NCC(O)CO)c1cc2c(Oc3ccc(Br)cc3)cncc2s1` (stereo not drawn) [Example 149, 4-(4-Bromophenoxy)-N-(2,3-dihydroxypropyl)thieno[2,3-c]pyridine-2-carboxamide] displayed a melting point of 76 to 77 °C.

`NCCNC(=O)c1cc2c(Oc3ccc(Cl)cc3)cncc2s1` [Example 154, N-(2-Aminoethyl)-4-(4-chlorophenoxy)thieno[2,3-c]pyridine-2-carboxamide] returned a melting point of 111 to 114 °C.

For `NC(=O)CNC(=O)c1cc2c(Oc3ccc(Cl)cc3)cncc2s1` [Example 160, N-(2-Amino-2-oxoethyl)-4-(4-chlorophenoxy)thieno[2,3-c]pyridine-2-carboxamide], the melting point is 222 to 225 °C.

`CN(C)C(=O)c1cc2c(Oc3ccc(Br)cc3)cncc2s1` [Example 172, 4-(4-Bromophenoxy)-N,N-dimethylthieno[2,3-c]pyridine-2-carboxamide] gave a melting point of 93 to 95 °C.

With `CN(C)C(=O)c1cc2c(Oc3ccc(C(F)(F)F)cc3)cncc2s1` [Example 173, N,N-Dimethyl-4-[4-(trifluoromethyl)phenoxy]thieno[2,3-c]pyridine-2-carboxamide], the melting point lay within 74 to 76 °C.

The compound `CCc1cc(Oc2cncc3sc(C(N)=O)cc23)ccc1Cl` [Example 176, 4-(4-Chloro-3-ethylphenoxy)thieno[2,3-c]pyridine-2-carboxamide] registered a melting point of 185 to 187 °C.

Regarding `NC(=O)c1cc2c(Oc3cccc(F)c3F)cncc2s1` [Example 178, 4-(2,3-Difluorophenoxy)thieno[2,3-c]pyridine-2-carboxamide], the melting point lay within 207 to 209 °C.

Turning to `CNC(=O)c1cc2c(Oc3cccc(F)c3F)cncc2s1` [Example 179, 4-(2,3-Difluorophenoxy)-N-methylthieno[2,3-c]pyridine-2-carboxamide], the melting point was 169 to 171 °C.

The compound `CNC(=O)c1cc2c(Oc3cccc(F)c3)cncc2s1` [Example 180, 4-(3-Fluorophenoxy)-N-methylthieno[2,3-c]pyridine-2-carboxamide] had a melting point of 194 to 195 °C.

As for `CNC(=O)c1cc2c(Oc3ccc(F)c(F)c3F)cncc2s1` [Example 181, N-Methyl-4-(2,3,4-trifluorophenoxy)thieno[2,3-c]pyridine-2-carboxamide], the melting point was 170 to 171 °C.

Consider `NC(=O)c1cc2c(Oc3ccc(F)c(F)c3F)cncc2s1` [Example 182, 4-(2,3,4-Trifluorophenoxy)thieno[2,3-c]pyridine-2-carboxamide], for which the melting point fell in the range of 218 to 219 °C.

The compound `C=Cc1ccc(Oc2cncc3sc(C(=O)N(C)C)cc23)cc1` [Example 185, N,N-Dimethyl-4-(4-vinylphenoxy)thieno[2,3-c]pyridine-2-carboxamide] returned a melting point of 80 to 81 °C.

Compound `CNC(=O)c1cc2c(Oc3ccc(COC4CCCCO4)cc3)cncc2s1` (stereo not drawn) [Example 199, N-Methyl-4-{4-[(tetrahydro-2H-pyran-2-yloxy)methyl]phenoxy}thieno[2,3-c]pyridine-2-carboxamide] registered a melting point of 195 to 196 °C.

`NC(=O)c1cc2c(Oc3ccc(COC(=O)c4ccco4)cc3)cncc2s1` [Example 200, 4-[[2-(Aminocarbonyl)thieno[2,3-c]pyridin-4-yl]oxy}benzyl 2-furoate]: the melting point was 180 to 182 °C.

`CON=C(C)c1cc2c(Oc3ccc(Cl)cc3)cncc2s1` [Example 243A, 1-[4-(4-Chlorophenoxy)thieno[2,3-c]pyridin-2-yl]-1-ethanone O-methyloxime] showed a melting point of 126 to 128 °C.

For `CCC(=NO)c1cc2c(Oc3ccc(Cl)cc3)cncc2s1` [Example 246, 1-[4-(4-Chlorophenoxy)thieno[2,3-c]pyridin-2-yl]-1-propanone oxime], the melting point was 195 to 198 °C (dec.).

In the case of `N#Cc1cc2c(Oc3ccc(Cl)cc3)cncc2s1` [Example 248, 4-(4-Chlorophenoxy)thieno[2,3-c]pyridine-2-carbonitrile], the melting point is 140 to 142 °C.

Compound `N#CN=C(N)c1cc2c(Oc3ccc(Cl)cc3)cncc2s1` [Example 250, 4-(4-Chlorophenoxy)-N′-cyanothieno[2,3-c]pyridine-2-carboximidamide] showed a melting point of 265 to 268 °C.

`Nc1ccccc1C(=O)c1cc2c(Oc3ccc(Cl)cc3)cncc2s1` [Example 251, (2-Aminophenyl)[4-(4-chlorophenoxy)thieno[2,3-c]pyridin-2-yl]methanone] showed a melting point of 152 to 154 °C.

On to `NCc1cc2c(Oc3ccc(Cl)cc3)cncc2s1` [Example 256, [4-(4-Chlorophenoxy)thieno[2,3-c]pyridin-2-yl]methanamine], for which the melting point is 78.6 to 79.8 °C.

Consider `NC(=O)NCc1cc2c(Oc3ccc(Cl)cc3)cncc2s1` [Example 258, N-1[4-(4-Chlorophenoxy)thieno[2,3-c]pyridin-2-yl]methyl urea], for which the melting point fell in the range of 202 to 204 °C.

Take `Oc1ccc(-c2cc3c(Oc4ccc(Cl)cc4)cncc3s2)cc1` [Example 270, 4-[4-(4-Chlorophenoxy)thieno[2,3-c]pyridin-2-yl]phenol]: the melting point fell in the range of 213 to 215 °C.

Take `Nc1ccc(-c2cc3c(Oc4ccc(Cl)cc4)cncc3s2)cc1` [Example 272, 4-[4-(4-Chlorophenoxy)thieno[2,3-c]pyridin-2-yl]aniline]: the melting point fell in the range of 178 to 182 °C.

Regarding `Nc1nnc(-c2cc3c(Oc4ccc(Cl)cc4)cncc3s2)[nH]1` [Example 277, 5-[4-(4-Chlorophenoxy)thieno[2,3-c]pyridin-2-yl]-4H-1,2,4-triazol-3-amine], the melting point was above 270 °C.
